{
  "source": "patent US12594278B2",
  "about": "“Method for treatment of muscular dystrophy” (CHILDREN'S NATIONAL MEDICAL CENTER, priority 2019, dated 2026)",
  "key": {"[1]": {"test_system": "cultured adipogenic precursors and WT mouse FAPs", "conditions": "previously shown; cited from earlier work"}, "B6A/J FAPs": {"test_system": "B6A/J FAPs", "assay": "Spontaneous adipogenesis of B6A/J FAPs in culture with batimastat (Oil Red O)", "format": "cell-based, mouse", "conditions": "10 μM batimastat from day 3 in culture; 40,000 FAPs from 12Mo B6A/J mice; vs untreated", "procedure": "To test this, and to independently confirm the benefit of inhibiting adipogenic differentiation of FAPs for dysferlinopathy, a drug was used to inhibit adipogenic differentiation of FAPs. […] To test the ability of batimastat to prevent the spontaneous adipogenesis of B6A/J FAPs, 40,000 FAPs isolated from 12Mo B6A/J mice were treated with 10 μM batimastat starting from 3 days in culture. Using Oil Red O, the extent of adipogenic differentiation of these FAPs after 14 days in culture was quantified in vitro (FIG. 11A).\nIsolation and In Vitro Adipogenesis of FAPs. FAPs were isolated from the hindlimb muscles of 6Mo B6A/J mice in a modified protocol from previously published studies. Mice were euthanized and the tibialis anterior, extensor digitorum longus, gastrocnemius, soleus, quadriceps and psoas were immediately dissected. Non-muscle tissue including tendon, nerve and overlying fascia were carefully removed, and muscles were minced finely in a sterile dish and incubated in Collagenase II (2.5 U/ml, ThermoFisher, #17101015) in PBS for 30 min at 37° C. The resulting slurry was washed with sterile PBS before further digest in Collagenase D (1.5 U/ml, Sigma Aldridge, #COLLD-RO) and Dispase II (2.4 U/ml, Sigma Aldridge, #D4693) in PBS for 60 min at 37° C. […]"}},
  "data": [
    {"smiles": "CNC(=O)[C@H](Cc1ccccc1)NC(=O)[C@H](CC(C)C)[C@H](CSc1cccs1)C(=O)NO", "note": "[batimastat]", "values": [
      {"measurement": "adipogenesis of cultured adipogenic precursors and WT mouse FAPs", "setting": "[1]", "value": "restrict adipogenesis"},
      {"measurement": "spontaneous adipogenesis of the B6A/J FAPs (Oil Red O)", "setting": "B6A/J FAPs", "value": "reduced spontaneous adipogenesis"}
    ]}
  ]
}
